Results published in US20240189388A1, “MEDICATION FOR TREATING LUNG INJURY” (SHANGHAI SEME CELL TECHNOLOGY CO., LTD., priority 2021, published 2024).

Columns and labels:
rats with a lung injury [1] = experiment: Wet/dry ratio of the lung (Example 2); assay type: in vivo, Sprague-Dawley rats
Experimental: (§1) D0: The animals in the normal control group were intraperitoneally injected with sodium chloride injection (1 ml/kg), while the animals in other groups were intraperitoneally injected with lipopolysaccharides (1 mg/kg, 1 ml/kg).
(§2) D1: After 16 h (+30 min) of intraperitoneal injection, the animals were anesthetized by inhaling isoflurane. The animals in the normal control group were nebulized with sodium chloride injection (1 mL/kg) in the trachea, while the animals in other groups were nebulized with lipopolysaccharides (5 mg/kg, 1 ml/kg) in the trachea.
(§3) Administration frequency and duration: On D1, the animals were administered for the first time within 3 h after the intratracheal nebulization with the modeling reagent (LPS); and on D2, the animals were administered for the second time. The interval between the two administrations was about 24 h (+20 min).
During the autopsy, whether the lungs, trachea, and bronchi of the animals were abnormal were observed. […]
Foreign matters such as blood and tissue fluid on the surface of the middle lobe tissues of the right lung were wiped with a paper towel, the right lung was weighed, then the middle lobe tissues of the right lung were placed in a 60° C. oven for 72 h, the right lung was weighed again, and the wet/dry weight ratio of the lung was calculated. […]

[2] = Body weight of rats after LPS modeling (Example 1); assay type: in vivo
Experimental: Normal adult male SD rats were randomly grouped, 5 rats in each group. The animals were intraperitoneally injected and nebulized in the trachea with lipopolysaccharides (LPS) as a modeling reagent, as shown in Table 1:
The animals in groups G1 and G2 were intraperitoneally injected with lipopolysaccharides (0.8 mg/kg. body weight) according to their body weight, anesthetized by inhaling isoflurane after 16 h of the intraperitoneal injection, and nebulized with lipopolysaccharides (5 mg/kg. body weight) in the trachea.
The animals were administered for the first time within 1 h after the intratracheal nebulization with the modeling reagent (LPS), and the second time after 24 h.
Before grouping, the animals were weighed on the day of modeling and the day of administration of samples; and the animals were also weighed when they were found dead or on the brink of euthanasia.

rats with a lung injury [3] = experiment: Histopathological examination of lung, 5-grade method (Example 2); assay type: in vivo, Sprague-Dawley rats
Experimental: as §1, §2, §3
General observation: All animals in each group (including dead animals) were dissected and their tissues were stored. The animals that died during non-working hours were stored in the 2° C.-8° C. refrigerator and dissected as soon as possible within 24 hours. After dissecting and retaining tissues, animal carcasses were disposed of as medical waste.
During the autopsy, whether the lungs, trachea, and bronchi of the animals were abnormal were observed. The middle lobe of the right lung was incised and weighed for calculating a wet/dry weight ratio. The remaining tissues and bronchi of the right lung were fixed in a 10% neutral buffered formalin solution, followed by paraffin embedding, slicing, section preparation, and HE staining for pathological morphological observation of lung tissues. Standard terminologies were used for diagnosis and classification, and the lung tissues were pathologically examined by a 5-grade method (slight, mild, moderate, obvious, and severe).

rats with a lung injury [4] = experiment: BALF inflammatory factors and total protein (Example 2); assay type: in vivo, Sprague-Dawley rats
Experimental: as §1, §2, §3
Sample collection: After the animals were euthanatized, the skin and tissues of the neck and chest were incised to expose the trachea, bronchi, and lungs. The bronchi in the right lung were separated and ligated. A suture was threaded under the trachea, a ½ incision was made between cartilage rings of the trachea at an appropriate position under the thyroid cartilage, a trachea cannula was slowly inserted along the incision into the airway to a left bronchus, and the inserted cannula was fastened with the trachea by using the threaded suture at an appropriate position in a centripetal direction of the incision. 3 ml of PBS buffer was slowly injected with a syringe for bronchoalveolar lavage. The lavage was repeated 3 times, with each remaining for about 10 seconds. The lavage solution was collected into a centrifuge tube of appropriate capacity.
BALF treatment: The collected lavage solution was centrifuged at 4° C. and approximately 2000 rpm for 20 min. The supernatant was stored below −60° C. for later use. The precipitate was re-suspended with I mL of PBS buffer for count and classification of white blood cells. The supernatant after BALF centrifugation was managed as a sample by using a Watson LIMS7.5 system.
Test of total protein content in the BALF: At the end of the experiment, the total protein content in the BALF was tested by a total protein test kit (BCA method).
Test of inflammatory factors in the BALF: At the end of the experiment, the inflammatory factors (IL-1β, IL-6, IL-10, and TNF-α) in the BALF were tested by an inflammatory factor test kit.

[5] = ++ = mild, test sample group, 6 rats, 0.75 mg/kg
[6] = +++ = moderate, test sample group, 6 rats, 0.75 mg/kg
[7] = ++++ = obvious, test sample group, 6 rats, 0.75 mg/kg
[8] = +++++ = severe, test sample group, 6 rats, 0.75 mg/kg
[9] = test sample group vs model control group
[10] = − = no lesion, test sample group, 6 rats, 0.75 mg/kg
[11] = D3, 0.75 mg/kg i.v. twice, 6 rats, x ± SD

With Annexin A5 the “Wet/dry ratio of the lung” value (rats with a lung injury [1]; middle lobe of right lung, 0.75 mg/kg i.v. twice, 6 rats, x ± SD) was 4.68 ± 0.08, the “Change of wet/dry ratio of the lung” value (rats with a lung injury [1]; test sample group) was “decreased” and the “Body weight, Day 0” value ([2]; G2 mean, 5 rats, 1 mg/kg caudal vein injection, Day 0) was 254.49 g. The “Body weight, Day 1” value ([2]; G2 mean, 5 rats, 1 mg/kg caudal vein injection, Day 1) was 240.80 g, the “Body weight, Day 2” value ([2]; G2 mean, 5 rats, 1 mg/kg caudal vein injection, Day 2) was 224.36 g and the “Body weight, Day 3” value ([2]; G2 mean, 5 rats, 1 mg/kg caudal vein injection, Day 3) was 241.86 g. For the same substance, the “Body weight compared between groups” value ([2]; after LPS modeling, G2 vs G1) was “no significant difference between the groups”, the “Bleeding of the lung under a microscope” value (rats with a lung injury [3]; 0.75 mg/kg i.v. twice, D3) was “mildly” and the “Infiltration of the lung by inflammatory cells under a microscope” value (rats with a lung injury [3]; 0.75 mg/kg i.v. twice, D3) was “moderately to obviously”. The “Proliferation of alveolar epithelial cells under a microscope” value (rats with a lung injury [3]; 0.75 mg/kg i.v. twice, D3) was “mild to moderate”, the “Degree of alveolar wall thickening lesion: number of animals with grade ++” value (rats with a lung injury [3]; [5]) was 3 and the “Degree of inflammatory cell infiltrating lesion: number of animals with grade ++” value (rats with a lung injury [3]; [5]) was 0. The “Degree of alveolar wall thickening lesion: number of animals with grade +++” value (rats with a lung injury [3]; [6]) was 3, the “Degree of inflammatory cell infiltrating lesion: number of animals with grade +++” value (rats with a lung injury [3]; [6]) was 2 and the “Degree of alveolar wall thickening lesion: number of animals with grade ++++” value (rats with a lung injury [3]; [7]) was 0. For the same substance, the “Degree of inflammatory cell infiltrating lesion: number of animals with grade ++++” value (rats with a lung injury [3]; [7]) was 4, the “Degree of alveolar wall thickening lesion: number of animals with grade +++++” value (rats with a lung injury [3]; [8]) was 0 and the “Degree of inflammatory cell infiltrating lesion: number of animals with grade +++++” value (rats with a lung injury [3]; [8]) was 0. For the same substance, the “Change of inflammatory cell infiltrating lesions” value (rats with a lung injury [3]; in all rats, vs model) was “changed from severe and obvious to obvious and moderate”, the “Change of alveolar wall thickness” value (rats with a lung injury [3]; in half of the rats, vs model) was “changed from moderate to mild” and the “Degree of lung lesions” value (rats with a lung injury [3]; [9]) was “lower than that of the model control group”. For the same substance, the “Degree of alveolar wall thickening lesion: number of animals with grade −” value (rats with a lung injury [3]; [10]) was 0, the “Degree of inflammatory cell infiltrating lesion: number of animals with grade −” value (rats with a lung injury [3]; [10]) was 0 and the “IL-1β in BALF” value (rats with a lung injury [4]; [11]) was 107.45 ± 51.12 pg/mL. The “IL-6 in BALF” value (rats with a lung injury [4]; [11]) was 14.42 ± 23.92 pg/mL, the “IL-10 in BALF” value (rats with a lung injury [4]; [11]) was 0.92 ± 2.23 pg/mL and the “TNF-α in BALF” value (rats with a lung injury [4]; [11]) was 4.54 ± 4.63 pg/mL. For the same substance, the “Total proteins in BALF” value (rats with a lung injury [4]; [11]) was 461.31 ± 187.36 µg/mL and the “Change of BALF white blood cell counts, total protein and inflammatory factors” value (rats with a lung injury [4]; [9]) was “significantly decreased”.
